Assay results: patent publication US6537986B2, “Oxazolidinone antibacterial agents having a thiocarbonyl funtionality” (Pharmacia & Upjohn Company, priority 1997, dated 2003)
≈ marks a conversion by molar mass, not a printed value. Read-outs that look alike come from different tables or passages of the source.

Tests used:
E. Faecium (EFAE 12712) = test: MIC, standard agar dilution method; assay type: cell-based; settings: for MIC: Enterococcus faecium, read-out: EFAE 12712 MIC
Protocol: (§1) MIC Test Method The in vitro MICs of test compounds were determined by a standard agar dilution method. […] Serial 2-fold dilutions of each sample are made using 1.0 ml aliquots of sterile distilled water. To each 1.0 ml aliquot of drug is added 9 ml of molten Mueller Hinton agar medium. The drug-supplemented agar is mixed, poured into 15×100 mm petri dishes, and allowed to solidify and dry prior to inoculation. Vials of each of the test organisms are maintained frozen in the vapor phase of a liquid nitrogen freezer. Test cultures are grown overnight at 35° C. on the medium appropriate for the organism. Colonies are harvested with a sterile swab, and cell suspensions are prepared in Trypticase Soy broth (TSB) to equal the turbidity of a 0.5 McFarland standard. A 1:20 dilution of each suspension is made in TSB. […] The plates are incubated overnight at 35° C. Following incubation the Minimum Inhibitory Concentration (MIC μg/ml), the lowest concentration of drug that inhibits visible growth of the organism, is read and recorded.

[1] = tested on: Enterococcus faecalis (EFAE 9217); test: MIC, standard agar dilution method; assay type: cell-based; settings: Table II, key: Enterococcus faecalis, Mueller Hinton agar, incubated overnight at 35° C.; for MIC: read-out: EFAE 9217 MIC
Protocol: as §1

[2] = tested on: Haemophilus influenzae (HINF 30063); test: MIC, standard agar dilution method; assay type: cell-based; settings: Table II, Mueller Hinton agar, incubated overnight at 35° C.; for MIC: Haemophilus influenzae
Protocol: as §1

[3] = tested on: Moraxella catarrhalis (MCAT 30610); test: MIC, standard agar dilution method; assay type: cell-based; settings: Table II, Mueller Hinton agar, incubated overnight at 35° C.; for MIC: Moraxella catarrhalis
Protocol: as §1

S. aureus (SAUR 9213) = test: MIC, standard agar dilution method; assay type: cell-based; settings: Table II, Mueller Hinton agar, incubated overnight at 35° C.; for MIC: Staphylococcus aureus, read-out: SAUR 9213 MIC
Protocol: as §1

[4] = tested on: S. epidermidis (SEPI 30593); test: MIC, standard agar dilution method; assay type: cell-based; settings: Table II, Mueller Hinton agar, incubated overnight at 35° C.; for MIC: Staphylococcus epidermidis
Protocol: as §1

[5] = tested on: S. pneumoniae (SPNE 9912); test: MIC, standard agar dilution method; assay type: cell-based; settings: Table II, Mueller Hinton agar, incubated overnight at 35° C.; for MIC: Streptococcus pneumoniae, read-out: SPNE 9912 MIC
Protocol: as §1

S. pyogenes (SPYO 152) = test: MIC, standard agar dilution method; assay type: cell-based; settings: Table II, Mueller Hinton agar, incubated overnight at 35° C.; for MIC: Streptococcus pyogenes, read-out: SPYO 152 MIC
Protocol: as §1

[6] = Table II, key: E. Faecium, agar dilution, Mueller Hinton agar, incubated overnight at 35° C.

MIC (E. Faecium (EFAE 12712)) [µg/mL]	MIC [1] [µg/mL]	MIC [2] [µg/mL]	MIC [3] [µg/mL]	MIC (S. aureus (SAUR 9213)) [µg/mL]	MIC [4] [µg/mL]	MIC [5] [µg/mL]	MIC (S. pyogenes (SPYO 152)) [µg/mL]	MIC (E. Faecium (EFAE 12712); [6]) [µg/mL]	melting point	EFAE 12712 MIC (E. Faecium (EFAE 12712); [6]) [µg/mL]	EFAE 9217 MIC [1] [µg/mL]	HINF 30063 MIC [2] [µg/mL]	MCAT 30610 MIC [3] [µg/mL]	SAUR 9213 MIC (S. aureus (SAUR 9213)) [µg/mL]	SEPI 30593 MIC [4] [µg/mL]	SPNE 9912 MIC [5] [µg/mL]	SPYO 152 MIC (S. pyogenes (SPYO 152)) [µg/mL]	SMILES
0.5 (≈ 1.3 µM)	0.5 (≈ 1.3 µM)	4 (≈ 10.4 µM)	1 (≈ 2.6 µM)	0.5 (≈ 1.3 µM)	0.25 (≈ 0.65 µM)	< 0.125	0.25 (≈ 0.65 µM)	–	–	–	–	–	–	–	–	–	–	CC(=S)NC[C@H]1CN(c2ccc([C@H]3CC[S@@+]([O-])CC3)c(F)c2)C(=O)O1 [Example 7, (S)-cis-N-[[3-[3-Fluoro-4-(tetrahydro-1-oxido-2H-thiopyran-4-yl)phenyl]-2-oxo-5-oxazolidinyl]methyl]ethanethioamide]
–	1 (≈ 2.59 µM)	4 (≈ 10.4 µM)	2 (≈ 5.19 µM)	2 (≈ 5.19 µM)	1 (≈ 2.59 µM)	< 0.125	0.25 (≈ 0.649 µM)	0.5 (≈ 1.3 µM)	–	–	–	–	–	–	–	–	–	NC(=S)NC[C@H]1CN(c2ccc([C@H]3CC[S@@+]([O-])CC3)c(F)c2)C(=O)O1 [Example 8, (S)-cis-[[3-[3-Fluoro-4-(tetrahydro-1-oxido-2H-thiopyran-4-yl)phenyl]-2-oxo-5-oxazolidinyl]methyl]thiourea]
–	0.25 (≈ 0.65 µM)	2 (≈ 5.2 µM)	0.5 (≈ 1.3 µM)	0.5 (≈ 1.3 µM)	0.25 (≈ 0.65 µM)	< 0.125	< 0.125	0.25 (≈ 0.65 µM)	–	–	–	–	–	–	–	–	–	CC(=S)NC[C@H]1CN(c2ccc([C@H]3CC[S@+]([O-])CC3)c(F)c2)C(=O)O1 [Example 9, (S)-trans-N-[[3-[3-Fluoro-4-(tetrahydro-1-oxido-2H-thiopyran-4-yl)phenyl]-2-oxo-5-oxazolidinyl]methyl]ethanethioamide]
–	1 (≈ 2.59 µM)	2 (≈ 5.19 µM)	1 (≈ 2.59 µM)	2 (≈ 5.19 µM)	1 (≈ 2.59 µM)	< 0.125	0.25 (≈ 0.649 µM)	0.5 (≈ 1.3 µM)	–	–	–	–	–	–	–	–	–	NC(=S)NC[C@H]1CN(c2ccc(C3CC[S+]([O-])CC3)c(F)c2)C(=O)O1 (stereo partly drawn) [Example 10, (S)-trans-[[3-[3-Fluoro-4-(tetrahydro-1-oxido-2H-thiopyran4-yl)phenyl]-2-oxo-5-oxazolidinyl]methyl]thiourea]
–	0.25 (≈ 0.624 µM)	2 (≈ 4.99 µM)	1 (≈ 2.5 µM)	0.25 (≈ 0.624 µM)	0.25 (≈ 0.624 µM)	< 0.125	0.25 (≈ 0.624 µM)	0.25 (≈ 0.624 µM)	–	–	–	–	–	–	–	–	–	CC(=S)NC[C@H]1CN(c2ccc(C3CCS(=O)(=O)CC3)c(F)c2)C(=O)O1 [Example 11, (S)-N-[[3-[3-Fluoro-4-(tetrahydro-1,1-dioxido-2H-thiopyran-4-yl)phenyl]-2-oxo-5-oxazolidinyl]methyl]ethanethioamide]
–	0.5 (≈ 1.25 µM)	1 (≈ 2.49 µM)	0.5 (≈ 1.25 µM)	1 (≈ 2.49 µM)	0.5 (≈ 1.25 µM)	< 0.125	< 0.125	0.25 (≈ 0.623 µM)	–	–	–	–	–	–	–	–	–	NC(=S)NC[C@H]1CN(c2ccc(C3CCS(=O)(=O)CC3)c(F)c2)C(=O)O1 [Example 12, (S)-N-[[3-[3-Fluoro-4-(tetrahydro-1,1-dioxido-2H-thiopyran-4-yl)phenyl]-2-oxo-5-oxazolidinyl]methyl]thiourea]
–	2 (≈ 5.89 µM)	> 16	8 (≈ 23.6 µM)	1 (≈ 2.95 µM)	1 (≈ 2.95 µM)	0.5 (≈ 1.47 µM)	1 (≈ 2.95 µM)	2 (≈ 5.89 µM)	150 to 155 °C (dec.)	–	–	–	–	–	–	–	–	O=C1O[C@@H](CNC=S)CN1c1ccc(N2CCOCC2)c(F)c1 [Example 13, (S)-N-[[3-[3-Fluoro-4-(4-morpholinyl)phenyl]-2-oxo-5-oxazolidinyl]methyl]-thioformamide]
–	1 (≈ 2.72 µM)	8 (≈ 21.8 µM)	1 (≈ 2.72 µM)	1 (≈ 2.72 µM)	0.5 (≈ 1.36 µM)	0.25 (≈ 0.68 µM)	0.5 (≈ 1.36 µM)	1 (≈ 2.72 µM)	138 to 139 °C	–	–	–	–	–	–	–	–	CCC(=S)NC[C@H]1CN(c2ccc(N3CCOCC3)c(F)c2)C(=O)O1 [Example 14, (S)-N-[[3-[3-Fluoro-4-(4-morpholinyl)phenyl]-2-oxo-5-oxazolidinyl]methyl]thiopropion-amide]
–	32 (≈ 82.5 µM)	> 64	64 (≈ 165 µM)	32 (≈ 82.5 µM)	16 (≈ 41.3 µM)	4 (≈ 10.3 µM)	8 (≈ 20.6 µM)	32 (≈ 82.5 µM)	–	–	–	–	–	–	–	–	–	O=C1O[C@@H](CNC(=S)CCl)CN1c1ccc(N2CCOCC2)c(F)c1 [Example 15, (S)-N-[[3-[3-Fluoro-4-(4-morpholinyl)phenyl]-2-oxo-5-oxrazolidinyl]methyl]-2-chlorotlioacetamide]
–	16 (≈ 39.3 µM)	> 64	32 (≈ 78.5 µM)	8 (≈ 19.6 µM)	8 (≈ 19.6 µM)	2 (≈ 4.91 µM)	8 (≈ 19.6 µM)	16 (≈ 39.3 µM)	151 to 152 °C	–	–	–	–	–	–	–	–	O=C1O[C@@H](CNC(=S)C(F)(F)F)CN1c1ccc(N2CCOCC2)c(F)c1 [Example 16, (S)-N-[[3-[3-Fluoro-4-(4-moropholinyl)phenyl]-2-oxo-5-oxazolidinyl]methyl]-α,α,α-trifluorothioacetamide]
–	2 (≈ 5.14 µM)	32 (≈ 82.2 µM)	4 (≈ 10.3 µM)	2 (≈ 5.14 µM)	1 (≈ 2.57 µM)	< 0.5	1 (≈ 2.57 µM)	2 (≈ 5.14 µM)	125 to 127 °C	–	–	–	–	–	–	–	–	O=C1O[C@@H](CNC(=S)C(F)F)CN1c1ccc(N2CCOCC2)c(F)c1 [Example 18, (S)-N-[[3-[3-Fluoro-4-(4-morpholinyl)phenyl]-2-oxo-5-oxazolidinyl]methyl]-α,α-difluorothioacetamide]
–	–	–	–	–	–	–	–	–	–	32	32	64	32	32	16	16	16	N#CCC(=S)NC[C@H]1CN(c2ccc(N3CCOCC3)c(F)c2)C(=O)O1 [Example 19, (S)-N-[[3-[3-Fluoro-4-(4-morpholinyl)phenyl]-2-oxo-5-10 oxazolidinyl]methyl]-α-eyanothioacetamnide]
–	1 (≈ 2.98 µM)	4 (≈ 11.9 µM)	2 (≈ 5.96 µM)	0.5 (≈ 1.49 µM)	0.5 (≈ 1.49 µM)	< 0.125	0.25 (≈ 0.745 µM)	1 (≈ 2.98 µM)	–	–	–	–	–	–	–	–	–	CC(=S)NC[C@H]1CN(c2ccc(-n3cncn3)c(F)c2)C(=O)O1 [Example 22]
–	–	–	–	–	–	–	–	–	–	0.5	0.5	2	1	0.5	0.25	0.25	0.25	CC(=S)NC[C@H]1CN(c2ccc(N3CCS(=O)(=O)CC3)c(F)c2)C(=O)O1 [Example 28, (S)-N-[[3-[3-Fluoro-4-(4-thiomorpholinyl)phenyl]-2-oxo-5-oxazolidinyl]methyl]thio-acetamide, thiomorpholine S, S-dioxide]
–	–	–	–	–	–	–	–	–	–	2	2	>16	4	2	1	0.5	1	CSC(=S)NC[C@H]1CN(c2ccc(N3CCOCC3)c(F)c2)C(=O)O1 [Example 34]
–	–	–	–	–	–	–	–	–	208 to 209 °C	–	–	–	–	–	–	–	–	COC(=S)NC[C@H]1CN(c2ccc(N3CC[S+]([O-])CC3)c(F)c2)C(=O)O1 [Example 100, (S)-N-[[3-[3-Fluoro-4-(4-thiomorpholinyl)phenyl]-2-oxo-5-oxazolidinyl]methyl]-O-methylthiocarbamate, thiomorpholine S-oxide]
–	–	–	–	–	–	–	–	–	129 to 131 °C	–	–	–	–	–	–	–	–	CC(=S)NC[C@H]1CN(c2ccc(N3CCCSCC3)cc2)C(=O)O1 [Example 534, (5S)-N-[[3-[4-(Tetrahydro-1,4-thiazepin-4(5H)-yl)phenyl]-2-oxo-5-oxazolidinyl]methyl]thioacetamide]

SMILES	MIC (E. Faecium (EFAE 12712)) [µg/mL]	MIC [1] [µg/mL]	MIC [2] [µg/mL]	MIC [3] [µg/mL]	MIC (S. aureus (SAUR 9213)) [µg/mL]	MIC [4] [µg/mL]	MIC [5] [µg/mL]	MIC (S. pyogenes (SPYO 152)) [µg/mL]	MIC (E. Faecium (EFAE 12712); [6]) [µg/mL]	melting point	EFAE 12712 MIC (E. Faecium (EFAE 12712); [6]) [µg/mL]	EFAE 9217 MIC [1] [µg/mL]	HINF 30063 MIC [2] [µg/mL]	MCAT 30610 MIC [3] [µg/mL]	SAUR 9213 MIC (S. aureus (SAUR 9213)) [µg/mL]	SEPI 30593 MIC [4] [µg/mL]	SPNE 9912 MIC [5] [µg/mL]	SPYO 152 MIC (S. pyogenes (SPYO 152)) [µg/mL]
COC(=S)NC[C@H]1CN(c2ccc(N3CCOCC3)c(F)c2)C(=O)O1 [Example 35]	–	–	–	–	–	–	–	–	–	–	1	1	16	2	1	0.5	0.25	0.5
